Laboratory results taken from patent US20250388867A1, “COMPOSITION AND METHOD FOR CULTURING ORGANOIDS” (ORGANOIDSCIENCES, LTD., priority 2017, published 2025).

Tests used:
adenoid organoids = assay: Formation of organoids (Example 8), adenoid; type: cell-based, human; settings: 1 μM
From the text: (§1) Large intestinal tissue, adenoid tissue, and pancreatic cancer tissue were isolated from a patient during surgery and used in experiments for preparing and culturing organoids. Salivary tissue was isolated from a mouse and used in experiments for preparing and culturing organoids.
(§2) Each of the tissues was cut longitudinally from a proximal end to a distal end, and also laterally cut into pieces of about 5 mm length. The piece of the tissues obtained was washed with ice-cooled Dulbecco's phosphate-buffered saline (DPBS) until the supernatant liquid was sufficiently clear. Then, the tissues were isolated by treating with a Gentle Cell Dissociation Reagent (StemCell Technologies, Cambridge, MA), and filtering with a cell strainer. The isolated tissues were mixed in collagen gel, and placed in each well of a well plate. After keeping in 37° C. humidification incubator (5% CO2), the cultured organoids were observed, and optical microscope photos were taken for analysis.

[1] = tested on: human large intestinal organoids; assay: Formation of large intestinal organoids, RS-246204 concentration series (Example 7); type: cell-based
From the text: (§3) Large intestinal tissue was isolated from a human patient during surgery and used in experiments for forming organoids. The tissue was cut longitudinally from a proximal end to a distal end, and also laterally cut into pieces of about 5 mm length. The tissue pieces, which were isolated crypts, were washed with ice-cooled Dulbecco's phosphate-buffered saline (DPBS) until the supernatant liquid was sufficiently clear. Then, the crypts were isolated by treating with a Gentle Cell Dissociation Reagent (StemCell Technologies, Cambridge, MA), and filtering with a cell strainer. The crypts were mixed in collagen gel, and placed in each well of a well plate with the composition comprising the compound of the chemical formula 1 (namely, RS-246204). After keeping in a 37° C. humidification incubator (5% CO2) for 5 days, the formed organoids were observed, optical microscope photos were taken for analysis, and organoid counts were analyzed using Leopard iX software.
(§4) The control and experimental groups were classified as follows depending on the components of the medium composition used.
• RS 0 μM group: Basal media (Advanced DMEM/F12 media) not supplemented with RS-246204 (also referred to as “RS”) was used to form human large intestinal organoids. • RS 2.5 μM group: Basal media (Advanced DMEM/F12 media) supplemented with RS-246204 2.5 μM was used to form human large intestinal organoids.
• RS 5 μM group: Basal media (Advanced DMEM/F12 media) supplemented with RS-246204 5[…] μM was used to form human large intestinal organoids. • RS 50 μM group: Basal media (Advanced DMEM/F12 media) supplemented with RS-246204 50 μM was used to form human large intestinal organoids. • RS 100 μM group: Basal media (Advanced DMEM/F12 media) supplemented with RS-246204 100 μM was used to form human large intestinal organoids.

[2] = tested on: small intestinal organoids; assay: Budding characteristics analysis (counts of budding and non-budding organoids); type: cell-based, mouse; settings: 4 days
From the text: The morphological characteristic of the small intestinal organoids is that they grow while budding. In order to check that the budding rate of the small intestinal organoids grown in the RS-246204-added culture solution (hereinafter, RS-246204 culture solution) is similar to that grown in ENR culture solution, the total number of organoids, the number of budding organoids, and the number of non-budding organoids were counted in the wells culturing for 4 days. The rate of budding organoids and non-budding organoids grown in the culture solution containing 50 μM of RS-246204 is about 1:1, which is similar to the rate of organoids grown in the ENR culture solution (see FIG. 2C).

[3] = tested on: human large intestinal organoids; assay: Formation of large intestinal organoids (Example 6); type: cell-based; settings: for organoid formation: 5 days
From the text: as §3, with “in” for “in a”, “observed, and” for “observed,”, “analysis.” for “analysis, and organoid counts were analyzed using Leopard iX software.”
as §4
• ENR group: Basal media supplemented with EGF (E), Noggin (N) and R-spondin (R) was used to form human large intestinal organoids. • EN+RS-246204 group: Basal media supplemented with EGF (E), Noggin (N) and RS-246204 (25 or 50 μM) was used to form human large intestinal organoids.
• RS-246204 group: Basal media supplemented with RS-246204 (25 or 50 μM) was used to form human large intestinal organoids.
Noggin, thiazovivin, CHIR99021, and a pharmaceutically acceptable salt of CHIR99021 was not used in both the control and experimental groups.

[4] = tested on: small intestinal organoids; assay: CFTR agonist Forskolin analysis (function maintenance); type: cell-based, mouse; settings: 4 days culture, then forskolin 5 μM, 1 hour
Protocol: In order to check whether functions of small intestinal epithelial cells are maintained in the small intestinal organoids cultured using the RS-246204 culture solution, CFTR agonist Forskolin analysis was performed. The forskolin is a compound which stimulates ion channels to open, thereby promoting the release of moisture. In case of small intestinal organoids, moisture gathers into the lumen by the forskolin stimulation and changes into a large spherical shape, thereby confirming the maintenance of the function of epithelial cells. After culturing for 4 days in RS-246204 culture solution and ENR culture solution, respectively, it was replaced with a culture solution to which forskolin was added at a concentration of 5 μM. Photographs were taken by an optical microscope at an interval of 10 minutes for 1 hour immediately after the replacement. Based on the optical micrographs, the free curve tool of Dixi eXcope (Korea) program was used to measure the circumference of each organoid per hour and analyze the change in circumference.

[5] = tested on: small intestinal organoids; assay: Immunofluorescence analysis; type: cell-based, mouse; settings: organoids cultured in ENR and RS-246204 culture solutions
salivary organoids = assay: Formation of organoids (Example 8), salivary; type: cell-based, mouse
From the text: as §1, §2

[6] = tested on: small intestinal organoids; assay: Screening of compound library using organoid proliferation measurement; type: cell-based, mouse; settings: 50 μM in EN culture solution, 4 days
From the text: Small intestinal crypts were isolated from a mouse to be used in experiments for preparing and culturing small intestinal organoids. Specifically, the small intestine was isolated after killing a 5-7 weeks old C57BL/6 mouse weighing 20-25 g by cervical vertebrae dislocation. The small intestine was cut longitudinally from a proximal end to a distal end, and also laterally cut into pieces of about 5 mm length. The piece of small intestine obtained was washed with ice-cooled Dulbecco's phosphate-buffered saline (DPBS) until the supernatant liquid was sufficiently clear. Then, the crypts were isolated by treating with a Gentle Cell Dissociation Reagent (StemCell Technologies, Cambridge, MA), and filtering with a cell strainer.
Compounds which can replace R-spondin in organoid cultures were screened for 8,364 types of compounds included in a representative library of the Korea Chemical Bank.
The small intestinal crypts derived from the small intestine of a 7-week-old C57BL/6 mouse isolated in Example 1 were mixed in Matrigel, and placed in each well of a 96-well plate. […]
The number of living organoids, the number of budding organoids, and the circumference of each organoid were measured using the optical microscope photos. […] The compounds were ranked based on the measured values, and then 295 candidate compounds were selected to be used in a second screening. […]

[7] = tested on: pancreatic cancer organoids; assay: Formation of organoids (Example 8), pancreatic cancer; type: cell-based, human
From the text: as §1, §2

[8] = tested on: small intestinal organoids; assay: RT-PCR and qRT-PCR analysis of lineage markers; type: cell-based, mouse
Protocol: In order to confirm whether lineage markers specific to the small intestinal organoids are expressed when cultured with RS-246204, RNA analysis was performed. The small intestinal organoids cultured in ENR and RS-246204 culture solutions, respectively, for 4 days were collected. RNA was extracted and cDNA was synthesized, and then RT-PCR was performed. As a marker for intestinal stem cells, goblet cells, paneth cells, enteroendocrine cells and enterocyte, RT-PCR was performed using RNA primers for Lgr5, muc-1 and muc-2, defesing-5, chromogranin A (ChgA), and villin, respectively.
For quantitative analysis, qRT-PCR analysis was performed. AccuPower 2X Greenstar qPCR MasterMix (Bioneer) and Thermal Cycler Dice® Real Time System III (Takara, Japan) were used, and the reaction was performed for 10 seconds at 95° C. (denaturation), 15 seconds at 57° C. (annealing), and 20 seconds at 72° C. (extension). The RNA primers excluded Muc1 among those used in the RT-PCR test, changed the enterocyte marker from villin to Intestinal Alkaline Phosphatase (IAP), and used the same sequence for the rest.

[9] = tested on: small intestinal organoids; assay: Organoid circumference by date (growth efficiency); type: cell-based, mouse; settings: RS-246204 culture solution vs ENR culture solution, photographed every day
Protocol: In order to check whether the growth efficiency of the small intestinal organoids grown in the RS-246204 culture solution has a difference, the small intestinal organoids cultured in each culture solution were photographed by an optical microscope every day. The circumference of the individual organoid according to the condition of culture medium and date was measured, and converted into percentage.

[10] = tested on: small intestinal organoids; assay: Subculture of small intestinal organoids; type: cell-based, mouse; settings: RS-246204 culture solution
[11] = tested on: large intestinal organoids; assay: Formation of organoids (Example 8), large intestinal; type: cell-based, human
From the text: as §1, §2

SMILES: Cn1c(Sc2ccc3ccccc3n2)nc2c1c(=O)[nH]c(=O)n2C [RS-246204]
- dose dependence of formation and proliferation (adenoid organoids; 2 μM or 5 μM): form and proliferate in a dose-dependent manner
- formation and proliferation effects (adenoid organoids; 2 μM or 5 μM RS-246204): excellent formation and proliferation effects
- quantity of organoid calculated from the confluency ([1]; RS 2.5 μM compared with RS 0 μM group): no significant difference
- organoid formation ([1]; RS 2.5 μM in Advanced DMEM/F12, 5 days): human intestinal organoids were formed
- organoid formation ([1]; RS-246204 5, 50 or 100 μM in Advanced DMEM/F12, 5 days): human intestinal organoids were formed
- killing of organoids ([2]; concentration higher than 50 μM): most organoids were killed
- rate of non-budding organoids ([2]; concentration lower than 50 μM): increased
- organoid formation ([3]; EN+RS-246204 group: basal media with EGF, Noggin and RS-246204 (25 or 50 μM)): human intestinal organoids were formed
- quantity of organoid calculated from the confluency ([3]; RS-246204 group (25 or 50 μM) compared with ENR or EN+RS-246204 groups): no significant difference
- organoid formation ([3]; RS-246204 group: basal media supplemented with RS-246204 only (25 or 50 μM)): human intestinal organoids were formed
- function of epithelial cells after forskolin stimulation [4]: performed well as epithelial cells
- expression of Muc-2, lysozyme and Ki67 (immunofluorescence staining) [5]: confirm the expression of Muc-2, lysozyme, and Ki67
- growth after subculturing (salivary organoids): can grow even after subculturing
- dose dependence of formation and proliferation (salivary organoids; 1.25 μM, 2.5 μM or 5 μM): form and proliferate in a dose-dependent manner
- formation and proliferation effects (salivary organoids; 1.25 μM, 2.5 μM or 5 μM RS-246204): excellent formation and proliferation effects
- growth of small intestinal organoids ([6]; among the final seven candidate compounds): highest growth of small intestinal organoids among the candidate materials
- growth and maintenance of organoids compared with R-spondin ([6]; numerical data and visual confirmation): could grow and maintain organoids most similar to R-spondin
- growth after subculturing [7]: can grow even after subculturing
- formation and proliferation effects ([7]; 30 μM RS-246204): excellent formation and proliferation effects
- presence of intestinal stem cells, goblet cells, paneth cells, enteroendocrine cells and enterocyte (RT-PCR markers) ([8]; 4 days culture, Lgr5, muc-1, muc-2, defesing-5, ChgA, villin): all these cells were present
- relative amount of markers expressed (qRT-PCR) ([8]; ENR vs RS-246204 culture solutions): little difference between the ENR and RS-246204 culture solutions
- growth efficiency and increase rate of the circumference according to date [9]: similarly observed
- growth and maintenance after the subculture [10]: growth and maintenance were also possible even after the subculture
- possibility to subculture ([10]; same manner as ENR culture solution): possible to subculture
- budding (crypt) formation [11]: grow while forming budding (crypt)
- growth after subculturing [11]: can grow even after subculturing
- formation and proliferation effects ([11]; 20 μM RS-246204): excellent formation and proliferation effects
